According to BindingDB's records for doi:10.1016/S0960-894X(00)80067-0 (1994):

Assay: Compound was tested for inhibition of partially purified squalene epoxidase

| IC50 [µM] | SMILES |
| --- | --- |
| 500 | CCN(Cc1cccc(OCc2cc(-c3cccs3)cs2)c1)c1cc(O)cc(C2(C(F)(F)F)N=N2)c1 [3-{[3-([2,3']Bithiophenyl-5'-ylmethoxy)-benzyl]-ethyl-amino}-5-(3-trifluoromethyl-3H-diazirin-3-yl)-phenol] |
| 500 | CCN(Cc1cccc(OCc2cc(-c3cccs3)cs2)c1)c1ccc(C(=O)c2ccc(CCl)cc2)cc1 [(4-{[3-([2,3']Bithiophenyl-5'-ylmethoxy)-benzyl]-ethyl-amino}-phenyl)-(4-chloromethyl-phenyl)-methanone] |
| 500 | CCN(CC=CC#CC(C)(C)C)Cc1cccc(OCc2cc(CO)cc(C3(C(F)(F)F)N=N3)c2)c1 [[3-(3-{[((E)-6,6-Dimethyl-hept-2-en-4-ynyl)-ethyl-amino]-methyl}-phenoxymethyl)-5-(3-trifluoromethyl-3H-diazirin-3-yl)-phenyl]-methanol] |
